Experimental data reported in ChEMBL document CHEMBL1149658, “Pyridinylimidazole inhibitors of Tie2 kinase” (Bioorg Med Chem Lett, 2007).

How the values were obtained:
Angiopoietin-1 receptor = Angiopoietin-1 receptor (Homo sapiens, UniProt Q02763); assay: Inhibition of Tie2 kinase by autophosphorylation assay; assay type: functional
[1] = Inhibition of P38 kinase; set-up: species or system Homo sapiens
Mus musculus [2] = assay: Reduction in bFGF-induced angiogenesis in Matrigel mouse model at 50 mg/kg, ip bid; assay type: functional; set-up: scale not given: the % may be the effect or the level left; details: route intraperitoneal
Mus musculus [3] = assay: Reduction in bFGF-induced angiogenesis in Matrigel mouse model at 25 mg/kg, ip bid; assay type: functional; set-up: scale not given: the % may be the effect or the level left; details: route intraperitoneal
MOPC 315 = assay: Efficacy in mouse MOPC315 cells xenografted mouse assessed as delay in tumor growth; assay type: functional, cell-based

Chain of Angiopoietin-1 receptor (Q02763 whole entry): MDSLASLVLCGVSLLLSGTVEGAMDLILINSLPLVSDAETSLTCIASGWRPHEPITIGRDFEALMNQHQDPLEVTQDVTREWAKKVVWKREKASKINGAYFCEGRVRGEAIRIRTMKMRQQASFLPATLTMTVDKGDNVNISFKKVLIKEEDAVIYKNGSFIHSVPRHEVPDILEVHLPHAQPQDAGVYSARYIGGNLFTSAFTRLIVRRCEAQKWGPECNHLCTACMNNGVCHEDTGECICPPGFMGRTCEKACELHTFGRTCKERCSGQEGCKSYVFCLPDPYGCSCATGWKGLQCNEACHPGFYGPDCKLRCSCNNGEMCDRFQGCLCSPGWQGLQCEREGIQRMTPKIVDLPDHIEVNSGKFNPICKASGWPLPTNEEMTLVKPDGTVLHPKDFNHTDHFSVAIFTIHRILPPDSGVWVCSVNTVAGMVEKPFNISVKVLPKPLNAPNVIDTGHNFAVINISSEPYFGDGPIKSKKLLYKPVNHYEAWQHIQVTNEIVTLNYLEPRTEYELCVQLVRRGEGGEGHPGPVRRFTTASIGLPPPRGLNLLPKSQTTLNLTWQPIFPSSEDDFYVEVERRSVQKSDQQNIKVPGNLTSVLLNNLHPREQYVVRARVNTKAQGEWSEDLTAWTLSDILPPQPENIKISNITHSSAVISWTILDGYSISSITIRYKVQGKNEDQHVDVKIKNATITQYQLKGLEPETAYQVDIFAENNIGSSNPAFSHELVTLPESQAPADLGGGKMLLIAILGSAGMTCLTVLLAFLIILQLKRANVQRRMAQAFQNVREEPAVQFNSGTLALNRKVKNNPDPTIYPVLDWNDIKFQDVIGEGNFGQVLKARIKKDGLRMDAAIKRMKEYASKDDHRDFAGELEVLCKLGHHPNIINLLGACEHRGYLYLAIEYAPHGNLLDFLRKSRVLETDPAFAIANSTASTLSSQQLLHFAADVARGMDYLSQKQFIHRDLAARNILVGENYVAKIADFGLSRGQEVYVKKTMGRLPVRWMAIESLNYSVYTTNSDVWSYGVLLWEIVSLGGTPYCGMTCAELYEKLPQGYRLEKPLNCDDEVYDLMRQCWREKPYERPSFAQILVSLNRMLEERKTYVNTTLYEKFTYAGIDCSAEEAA

| Structure (SMILES) | IC50 (Angiopoietin-1 receptor) [µM] | IC50 [1] [µM] | Activity (Mus musculus [2]) [%] | Activity (Mus musculus [3]) [%] | Activity (MOPC 315) |
| --- | --- | --- | --- | --- | --- |
| C[S+]([O-])c1ccc(-c2nc(-c3ccc4cc(Br)ccc4c3)c(-c3ccncc3)[nH]2)cc1 (stereo not given) | 0.339 | 4.57 | – | – | – |
| COc1ccc2cc(-c3nc(-c4ccc([S+](C)[O-])cc4)[nH]c3-c3ccncc3)ccc2c1 (stereo not given) | 0.25 | 50 | 70 | 41 | Dose-dependent effect |
| COc1ccc2cc(-c3c(-c4ccncc4)nc(-c4ccc([S+](C)[O-])cc4)n3C)ccc2c1 (stereo not given) | 0.06 | 16 | 30 | 5 | – |
| C[S+]([O-])c1ccc(-c2nc(-c3ccc4cc(-c5ccccc5)ccc4c3)c(-c3ccncc3)[nH]2)cc1 (stereo not given) | 5.5 | 16.5 | – | – | – |
| C[S+]([O-])c1ccc(-c2nc(-c3ccc4ccccc4c3)c(-c3ccncc3)[nH]2)cc1 (stereo not given) | 0.3 | 0.3 | – | – | – |

More lines, main results first:

| IC50 (Angiopoietin-1 receptor) [µM] | IC50 [1] [µM] | Structure (SMILES) | Activity (Mus musculus [2]) [%] | Activity (Mus musculus [3]) [%] | Activity (MOPC 315) |
| --- | --- | --- | --- | --- | --- |
| 5.37 | > 16 | CCn1c(-c2ccc([S+](C)[O-])cc2)nc(-c2ccncc2)c1-c1ccc2cc(OC)ccc2c1 (stereo not given) | – | – | – |
| 0.437 | > 16 | CCCn1c(-c2ccc([S+](C)[O-])cc2)nc(-c2ccncc2)c1-c1ccc2cc(OC)ccc2c1 (stereo not given) | – | – | – |
| 20 | 16 | COc1ccc2cc(-c3nc(-c4ccc([S+](C)[O-])cc4)n(C)c3-c3ccncc3)ccc2c1 (stereo not given) | – | – | – |
| 0.219 | 0.741 | Cc1ccc2cc(-c3nc(-c4ccc([S+](C)[O-])cc4)[nH]c3-c3ccncc3)ccc2c1 (stereo not given) | – | – | – |
| 3.89 | > 16 | COc1ccc2cc(-c3c(-c4ccncc4)nc(-c4ccc([S+](C)[O-])cc4)n3CC(C)C)ccc2c1 (stereo not given) | – | – | – |
